Results published in US20190099502A1, “TARGETING THE NEURONAL CALCIUM SENSOR 1 FOR TREATING WOLFRAM SYNDROME” (INSERM (INSTITUT NATIONAL DE LA SANTÉ ET DE LA RECHERCHE …, priority 2016, published 2019).
Where a SMILES comes first, the peptide text is derived from it. The star is where a group is joined. Cbz = O=C(OCc1ccccc1)*

Test system: NCS1 expression
Assay: Time course immunoblotting of NCS1 in fibroblasts treated with MG-132
Format: cell-based, human
Details: 10 μM MG-132, 16 h
Method: Immunoprecipitates were analysed by western blotting with antibodies against Flag and myc. Input represents cell lysate. n=3 independent experiments. (B) Transcript levels of WFS1 were quantified by RT-qPCR in control (C1, C2) and patient fibroblasts (P1, P2). The mRNA levels were normalized with reference gene L27. Error bars: SEM n=6 independent experiments. (C) Immunoblot of lysates from controls (C1, C2) and patient fibroblasts (P1, P2) with NCS1 antibody. GAPDH was used as a loading control. The immunoblot bands were quantified by densitometry, and the NCS1/GAPDH ratios were calculated (n=5 independent experiments). (D) Western analysis and quantification of control fibroblasts transfected with scramble siRNA (siScr) or WFS1 siRNA (siWFS1). WFS1 and NCS1 protein expression were analysed 72 h post-siRNA transfection. Data are represented as mean ±SEM from n=7 independent experiments *p<0.05, using Mann Whitney test. […]
GAPDH was used as a loading control. Quantification of NCS1 expression level after 16 h of MG-132 treatment normalized to GAPDH is shown. […]
To investigate NCS1 functions in WS, we took advantage of WFS1-null patient fibroblasts. […] We first examined the expression of WFS1 using quantitative PCR and western blot. […] Then, we analysed NCS1 mRNA and protein expression in patient cells. […]

Question: What does the source list for `CC(C)C[C@@H](C=O)NC(=O)[C@H](CC(C)C)NC(=O)[C@H](CC(C)C)NC(=O)OCc1ccccc1` [MG-132] (Cbz-Leu-Leu-Leu-aldehyde)?
Answer: effect on NCS1 expression (control cells): ineffective; increase in NCS1 expression (patient fibroblasts, normalized to GAPDH): two-fold
